Source: patent publication US20040091855A1, “Method for production of antivirals by use of HIV-derived HR1 peptides, and trimers formed therefrom” (priority 2002, published 2004)

How the values were obtained:
HIV-1 = conditions: in vitro infectivity assay
From the text: These assays score for reduction of infectious virus titer employing the indicator cell lines MAGI or the CCR5 expressing derivative cMAGI. Both cell lines exploit the ability of HIV-1 tat to transactivate the expression of a β-galactosidase reporter gene driven by the HIV-LTR. The β-gal reporter has been modified to localize in the nucleus and can be detected with the X-gal substrate as intense nuclear staining within a few days of infection. The number of stained nuclei can thus be interpreted as equal to the number of infectious virions in the challenge inoculum if there is only one round of infection prior to staining. […] The cells were cultured for 2 more days, and then fixed and stained with the X-gal substrate to detect HIV-infected cells. The number of infected cells for each control and peptide dilution was determined with the CCD-imager, and then the IC50 and IC90 were calculated (expressed in μg/ml).

[1] = test system: trimers (SEQ ID NO:36) and labeled HR2 peptide (SEQ ID NO:33); assay: Fluorescence polarization assay of inhibition of complexing between trimers and labeled HR2 peptide; format: binding, HIV-1; conditions: read-out: Concentration to inhibit complexing between the trimers and labeled HR2 peptide by 50% (IC50); fluorescein-labeled HR2 peptide 0.2 nM; trimers SEQ ID NO:36 50 nM
Protocol: In an example of a homogenous assay carried out as a liquid phase-based assay system, a fluorescence polarization assay was used in taking advantage of the high affinity interaction between HR1 and HR2 regions. Into reaction wells of a high throughput plate (>300 reaction wells) was added 20 μl of a solution containing a desired concentration of molecule to be assessed for its ability to bind to trimers employed with the present invention (e.g., formed from synthetic peptide) and either inhibit or disrupt HR1-HR2 binding interactions (“complexing between HR1 and HR2″). […] To each reaction well was then added 10 μl of a solution containing a desired concentration of trimers (formed from synthetic peptide employed with the present invention). […] Fluorescence intensity of polarized light was then measured with a detection system comprising a spectrophotometer, and the amount of polarized light was calculated using standard software in the art. In this example of the method according to the present invention, molecules assessed for ability to inhibit or disrupt complexing between trimers and a labeled HR2 peptide (e.g., SEQ ID NO:33) comprised either of two HR2 peptides.

How did the “Antiviral activity against HIV-1 IC50” value (HIV-1) turn out when “HR2 peptide A: HR2 peptide, derived from the HR2 region of HIV-1 gp41; also used labeled as binding partner (WMEWDREINNYTSLIHSLIEESQNQQEKNEQELLEL)” was run?
Its value is 2 ng/mL.

And the “Antiviral activity against HIV-1 IC90” value (HIV-1)?
The value was 0.072 µg/mL.

And the IC50 [1]?
The IC50 was 68 nM.
